Our source for the IC50 values is paper PMC6481137, “Identification of Chinese Herbal Compounds with Potential as JAK3 Inhibitors” (Evidence-based Complementary and Alternative Medicine : eCAM, 2019).

Structures are written as SMILES.

The assay deals with T1, JAK3 kinase (Homo sapiens, UniProt P52333).
T1 construct: JAK3 kinase domain (amino acids 781 to 1124)
T1 sequence (P52333 781-1124): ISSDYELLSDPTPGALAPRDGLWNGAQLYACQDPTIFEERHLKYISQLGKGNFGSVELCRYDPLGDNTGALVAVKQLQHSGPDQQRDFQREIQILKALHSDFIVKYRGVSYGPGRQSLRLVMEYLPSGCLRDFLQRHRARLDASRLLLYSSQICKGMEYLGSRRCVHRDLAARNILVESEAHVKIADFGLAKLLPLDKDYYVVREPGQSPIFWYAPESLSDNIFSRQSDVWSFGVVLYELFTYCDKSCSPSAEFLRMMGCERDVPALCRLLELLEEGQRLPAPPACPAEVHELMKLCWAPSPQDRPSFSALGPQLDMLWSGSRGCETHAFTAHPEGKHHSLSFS
Briefly: ELISA kinase assay, poly(Glu,Tyr) substrate, […] ATP. It counts as biochemical. In general terms: ELISA stands for enzyme-linked immunosorbent assay.
Regarding `C[C@H]1COC2=C1C(=O)C(=O)c1c2ccc2c1CCCC2(C)C` [CRY, Cryptotanshinone], the IC50 is approximately 25 µM.

`COc1ccc(-c2oc3c(CC=C(C)C)c(O)cc(O)c3c(=O)c2O)cc1` [ICA, Icaritin]: the IC50 was approximately 20 µM.

`O=C1Nc2ccccc2/C1=C1/Nc2ccccc2C1=O` [IND, Indirubin] gave an IC50 of approximately 50 µM.

In general, IC50 refers to the concentration at which inhibition is half-maximal. Low values mean inhibition by little substance, high ones a need for much substance.
